Drawing on ChEMBL document CHEMBL3045255, “Novel quinolyl-thienyl chalcones and their 2-pyrazoline derivatives with diverse substitution pattern as antileishmanial agents against Leishmania major” (Med Chem Res, 2012), this text covers IC50 for 44 compounds.

SMILES strings stand for the structures. In brackets after ≈: the same amount, converted by molar mass.

For the experiment, the system named is Leishmania major. Nature of the experiment: Antileishmanial activity against promastigotes form of Leishmania major after 72 hr by cell counting using neubaur chamber. In kind it is functional, organism-based.
As to `Cc1ccc2cc(/C=C/C(=O)c3ccsc3)c(Cl)nc2c1`, the IC50 came to 0.88 µg/mL (≈ 2.8 µM).
Turning to `Cc1ccc2cc(/C=C/C(=O)c3sccc3C)c(Cl)nc2c1`, the IC50 came out at 0.92 µg/mL (≈ 2.81 µM).
`Cc1csc(C(=O)/C=C/c2cc3ccc(C)cc3nc2Cl)c1` yielded an IC50 of 0.83 µg/mL (≈ 2.53 µM).
`Cc1ccc2cc(/C=C/C(=O)c3ccc(C)s3)c(Cl)nc2c1` yielded an IC50 of 0.74 µg/mL (≈ 2.26 µM).
Turning to `Cc1ccc2cc(/C=C/C(=O)c3cc(C)sc3C)c(Cl)nc2c1`, half-maximal inhibition (IC50) required 0.62 µg/mL (≈ 1.81 µM).
The compound `Cc1ccc2cc(/C=C/C(=O)c3sccc3Cl)c(Cl)nc2c1` displayed an IC50 of 0.59 µg/mL (≈ 1.69 µM).
`Cc1ccc2cc(/C=C/C(=O)c3ccc(Cl)s3)c(Cl)nc2c1`: the IC50 came to 0.81 µg/mL (≈ 2.33 µM).
For `Cc1ccc2cc(/C=C/C(=O)c3cc(Cl)sc3Cl)c(Cl)nc2c1`, half-maximal inhibition (IC50) was put at 0.78 µg/mL (≈ 2.04 µM).
As for `Cc1ccc2cc(/C=C/C(=O)c3sccc3Br)c(Cl)nc2c1`, the IC50 was 0.71 µg/mL (≈ 1.81 µM).
Consider `Cc1ccc2cc(/C=C/C(=O)c3ccc(Br)s3)c(Cl)nc2c1`, for which the IC50 was found to be 0.91 µg/mL (≈ 2.32 µM).
For `Cc1ccc2cc(/C=C/C(=O)c3ccc(I)s3)c(Cl)nc2c1`, it took 0.84 µg/mL (≈ 1.91 µM) to reach half-maximal inhibition (IC50).
On to `Cc1cccc2cc(/C=C/C(=O)c3ccsc3)c(Cl)nc12`, for which the IC50 turned out to be 0.61 µg/mL (≈ 1.94 µM).
Under `Cc1ccsc1C(=O)/C=C/c1cc2cccc(C)c2nc1Cl` stands 0.94 µg/mL (≈ 2.87 µM); under `Cc1csc(C(=O)/C=C/c2cc3cccc(C)c3nc2Cl)c1`, 0.59 µg/mL (≈ 1.8 µM); under `Cc1ccc(C(=O)/C=C/c2cc3cccc(C)c3nc2Cl)s1`, 0.61 µg/mL (≈ 1.86 µM).
Next, `Cc1cc(C(=O)/C=C/c2cc3cccc(C)c3nc2Cl)c(C)s1`: 0.73 µg/mL (≈ 2.14 µM); `Cc1cccc2cc(/C=C/C(=O)c3sccc3Cl)c(Cl)nc12`: 0.78 µg/mL (≈ 2.24 µM); `Cc1cccc2cc(/C=C/C(=O)c3ccc(Cl)s3)c(Cl)nc12`: 0.65 µg/mL (≈ 1.87 µM).
Under `Cc1cccc2cc(/C=C/C(=O)c3cc(Cl)sc3Cl)c(Cl)nc12` stands 0.85 µg/mL (≈ 2.22 µM); under `Cc1cccc2cc(/C=C/C(=O)c3sccc3Br)c(Cl)nc12`, 0.93 µg/mL (≈ 2.37 µM).
For `Cc1cccc2cc(/C=C/C(=O)c3ccc(Br)s3)c(Cl)nc12`, the midpoint of inhibition, the IC50, lay at 0.78 µg/mL (≈ 1.99 µM).
Consider `Cc1cccc2cc(/C=C/C(=O)c3ccc(I)s3)c(Cl)nc12`, for which the IC50 came to 0.67 µg/mL (≈ 1.52 µM).
With `Cc1ccc2cc(C3CC(c4ccc(Br)s4)=NN3)c(Cl)nc2c1` (centres undefined), the IC50 is 0.93 µg/mL (≈ 2.29 µM).
Next, `Cc1ccc2cc(C3CC(c4ccc(I)s4)=NN3)c(Cl)nc2c1` (centres undefined): 0.88 µg/mL (≈ 1.94 µM); `Cc1cccc2cc(C3CC(c4ccsc4)=NN3)c(Cl)nc12` (centres undefined): 0.67 µg/mL (≈ 2.04 µM); `Cc1ccsc1C1=NNC(c2cc3cccc(C)c3nc2Cl)C1` (centres undefined): 0.78 µg/mL (≈ 2.28 µM).
`Cc1csc(C2=NNC(c3cc4cccc(C)c4nc3Cl)C2)c1` (centres undefined): the IC50 amounted to 0.74 µg/mL (≈ 2.16 µM).
`Cc1ccc(C2=NNC(c3cc4cccc(C)c4nc3Cl)C2)s1` (centres undefined) displayed an IC50 of 0.89 µg/mL (≈ 2.6 µM).
Compound `Cc1cc(C2=NNC(c3cc4cccc(C)c4nc3Cl)C2)c(C)s1` (centres undefined) had an IC50 of 0.93 µg/mL (≈ 2.61 µM).
`Cc1cccc2cc(C3CC(c4sccc4Cl)=NN3)c(Cl)nc12` (centres undefined): the IC50 came to 0.84 µg/mL (≈ 2.32 µM).
Compound `Cc1cccc2cc(C3CC(c4ccc(Cl)s4)=NN3)c(Cl)nc12` (centres undefined) registered an IC50 of 0.75 µg/mL (≈ 2.07 µM).
With `Cc1cccc2cc(C3CC(c4cc(Cl)sc4Cl)=NN3)c(Cl)nc12` (centres undefined), the midpoint of inhibition, the IC50, lay at 0.79 µg/mL (≈ 1.99 µM).
Regarding `Cc1cccc2cc(C3CC(c4sccc4Br)=NN3)c(Cl)nc12` (centres undefined), inhibition was half-maximal at 0.94 µg/mL (≈ 2.31 µM) (IC50).
Turning to `Cc1cccc2cc(C3CC(c4ccc(Br)s4)=NN3)c(Cl)nc12` (centres undefined), the IC50 was found to be 0.93 µg/mL (≈ 2.29 µM).
`Cc1cccc2cc(C3CC(c4ccc(I)s4)=NN3)c(Cl)nc12` (centres undefined) came in with an IC50 of 0.77 µg/mL (≈ 1.7 µM).
In turn, `Cc1ccc2cc(C3CC(c4ccsc4)=NN3)c(Cl)nc2c1` (centres undefined) displayed an IC50 of 0.94 µg/mL (≈ 2.87 µM).
The compound `Cc1ccc2cc(C3CC(c4sccc4C)=NN3)c(Cl)nc2c1` (centres undefined) registered an IC50 of 0.76 µg/mL (≈ 2.22 µM).
The compound `Cc1csc(C2=NNC(c3cc4ccc(C)cc4nc3Cl)C2)c1` (centres undefined) yielded an IC50 of 0.87 µg/mL (≈ 2.54 µM).
Compound `Cc1ccc2cc(C3CC(c4ccc(C)s4)=NN3)c(Cl)nc2c1` (centres undefined) registered an IC50 of 0.89 µg/mL (≈ 2.6 µM).
Compound `Cc1ccc2cc(C3CC(c4cc(C)sc4C)=NN3)c(Cl)nc2c1` (centres undefined) displayed an IC50 of 0.76 µg/mL (≈ 2.14 µM).
Take `Cc1ccc2cc(C3CC(c4sccc4Cl)=NN3)c(Cl)nc2c1` (centres undefined): the midpoint of inhibition, the IC50, lay at 0.78 µg/mL (≈ 2.15 µM).
Next, `Cc1ccc2cc(C3CC(c4ccc(Cl)s4)=NN3)c(Cl)nc2c1` (centres undefined): 0.83 µg/mL (≈ 2.29 µM); `Cc1ccc2cc(C3CC(c4cc(Cl)sc4Cl)=NN3)c(Cl)nc2c1` (centres undefined): 0.71 µg/mL (≈ 1.79 µM).
As to `Cc1ccc2cc(C3CC(c4sccc4Br)=NN3)c(Cl)nc2c1` (centres undefined), the midpoint of inhibition, the IC50, lay at 0.85 µg/mL (≈ 2.09 µM).
